The target of the assay is T1, human urotensin II receptor (Homo sapiens, UniProt Q9UKP6).
T1 construct: expressed in transfected cells; host or cells: NIH3T3 cells
T1 sequence (Q9UKP6 1-389): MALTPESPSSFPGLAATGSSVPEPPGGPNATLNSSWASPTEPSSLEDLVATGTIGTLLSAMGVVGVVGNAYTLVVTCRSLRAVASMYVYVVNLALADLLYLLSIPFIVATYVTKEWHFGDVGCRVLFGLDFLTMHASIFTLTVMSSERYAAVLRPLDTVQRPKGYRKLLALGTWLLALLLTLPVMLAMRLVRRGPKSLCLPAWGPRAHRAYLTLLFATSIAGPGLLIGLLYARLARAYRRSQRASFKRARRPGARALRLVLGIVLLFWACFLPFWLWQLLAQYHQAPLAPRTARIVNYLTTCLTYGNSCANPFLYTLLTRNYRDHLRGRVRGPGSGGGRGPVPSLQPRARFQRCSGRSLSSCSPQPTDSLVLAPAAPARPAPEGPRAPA
The assay can be described thus: Receptor Selection and Amplification (R-SAT) functional assay, NIH3T3 cells transfected with human urotensin II receptor and β-galactosidase marker. The format is cell-based. Conditions: for Emax: NIH3T3, Table 4, % efficacy normalized to UII at 100%; for EC50: Table 4, negative of the log EC50 in molarity, average ± standard deviation of 2-5 determinations, eight doses in triplicate. On the procedure: The functional receptor assay, Receptor Selection and Amplification Technology (R-SAT™), was used (with minor modifications from the procedure described previously (Brann, M. R. U.S. Pat. No. 5,707,798, 1998; Chem. Abstr. 1998, 128, 111548) to screen compounds for efficacy at the UII receptor. The RSAT assay was conducted as described herein.
Briefly, NIH3T3 cells were grown in tissue culture treated rollerbottles to 40-80% confluence in Dulbecco's modified Eagle's medium (DMEM) supplemented with 10% bovine calf serum (Hyclone) and 1% penicillin/streptomycin/glutamine (Invitrogen). Cells were transfected for 12-18 hours with the human urotensin II receptor and the β-galactosidase marker. After transfection, the cells were trypsinized, harvested and frozen in DMEM containing 10% DMSO. Frozen cells were later thawed and tested for a response to a control compound to perform quality control before initiation of pharmacological testing, ensuring the correct pharmacological response and sufficient sensitivity. To initiate the pharmacological assay, cells were thawed rapidly and prepared in DMEM media containing 0.4% calf serum (Hyclone), 30% UltraCulture (Biowhittaker), and 1% penicillin/streptomycin/glutamine (Invitrogen), and then plated at 10,000-40,000 cells per well of a 96½ area plate that contained either the test compounds or reference ligands. Cells were then grown in a humidified atmosphere with 5% ambient CO2 for five days. Media was then removed from the plates and marker gene activity was measured by the addition of the beta-galactosidase substrate ONPG (in PBS with 5% NP-40). The resulting colorimetric reaction was measured in a spectrophotometric plate reader (Titertek Inc.) at […].
pEC50 represents the negative logarithm of the concentration of ligand that caused 50% activation of the basal receptor response. Percent activation was calculated as the difference between the absorbance measurements in the absence of added ligand compared with that in the presence of saturating concentrations of ligand normalized to the absorbance difference for the reference ligand, which was assigned a value of 100%.
Results were determined in R-SAT assays and are expressed as pEC50, the negative of the log EC50 in molarity. Results are the average±standard deviation of 2-X determinations of the EC50 where each compound was tested in eight doses in triplicate.

Molecules are shown by their SMILES. Counter-ions that a name gives are not always drawn.

Regarding `CN(C)CCC(NC(=O)Cc1ccc(C(F)(F)F)cc1)c1ccc(Cl)cc1` (stereo not drawn) [A2, N-[1-(4-Chlorophenyl)-3-dimethylamino-propyl]-2-(4-trifluoromethylphenyl)acetamide HCl], the maximum response (Emax) (commonly the maximal effect, on the per cent scale that the assay sets) came out at 53 ± 7% and the EC50 (in general, the concentration at which the effect is half-maximal) is 0.871 µM.
`COc1ccc(CC(=O)NC(CCN(C)C)c2ccc(Cl)cc2)cc1` (stereo not drawn) [A3, N-[1-(4-Chlorophenyl)-3-dimethylamino-propyl]-2-(4-methoxyphenyl)acetamide HCl]: the Emax worked out at 65 ± 18% and the 50% effective concentration (EC50) was 1.51 µM.
Turning to `CN(C)CCC(NC(=O)CCc1ccccc1)c1ccc(Cl)cc1` (stereo not drawn) [A4, N-[1-(4-Chlorophenyl)-3-dimethylamino-propyl]-3-phenyl-propionamide HCl], the Emax is 139 ± 5% and the EC50 is 1.66 µM.
`CN(C)CCC(NC(=O)CCc1ccc(C(F)(F)F)cc1)c1ccc(Cl)cc1` (stereo not drawn) [A5, N-[1-(4-Chlorophenyl)-3-dimethylamino-propyl]-3-(4-trifluoromethylphenyl) propionamide HCl] gave an Emax of 73 ± 10% and an EC50 of 1.12 µM.
The corresponding values for `COc1ccc(CCC(=O)NC(CCN(C)C)c2ccc(Cl)cc2)cc1` (stereo not drawn) [A6, N-[1-(4-Chlorophenyl)-3-dimethylamino-propyl]-3-(4-methoxyphenyl)propanamide HCl] are 101 ± 12% and 2.95 µM.
With `CN(C)CCC(NC(=O)/C=C/c1ccccc1)c1ccc(Cl)cc1` (stereo not drawn) [A7, N-[1-(4-Chlorophenyl)-3-dimethylamino-propyl]-3-cinnamic amide HCl], the Emax stood at 128 ± 10% and a half-maximal effect (EC50) was put at 0.427 µM.
`CN(C)CCC(NC(=O)C=Cc1ccc(C(F)(F)F)cc1)c1ccc(Cl)cc1` (stereo not drawn) [A8, N-[1-(4-Chlorophenyl)-3-dimethylamino-propyl]-4-trifluoromethyl-cinnamic amide HCl] gave an Emax of 133 ± 3% and an EC50 of 0.129 µM.
`COc1ccc(C=CC(=O)NC(CCN(C)C)c2ccc(Cl)cc2)cc1` (stereo not drawn) [A9, N-[1-(4-Chlorophenyl)-3-dimethylamino-propyl]-4-methoxy-cinnamic amide HCl] gave an Emax of 99 ± 4% and an EC50 of 0.513 µM.
The corresponding values for `CN(C)CCC(NC(=O)C#Cc1ccccc1)c1ccc(Cl)cc1` (stereo not drawn) [A10, N-[1-(4-Chlorophenyl)-3-dimethylamino-propyl]-3-phenylpropiolic amide HCl] are 124 ± 6% and 0.398 µM.
For `Cc1ccc(C(CCN(C)C)NC(=O)Cc2ccccc2)cc1` (stereo not drawn) [B1, N-[3-Dimethylamino-1-(4-methylphenyl)propyl]-2-phenylacetamide HCl], in that order: 83 ± 11% and 4.17 µM.
For `Cc1ccc(C(CCN(C)C)NC(=O)Cc2ccc(C(F)(F)F)cc2)cc1` (stereo not drawn) [B2, N-[3-Dimethylamino-1-(4-methylphenyl)propyl]-2-(4-trifluoromethylphenyl)acetamide HCl], in that order: 25 ± 4% and 1.12 µM.
As to `COc1ccc(CC(=O)NC(CCN(C)C)c2ccc(C)cc2)cc1` (stereo not drawn) [B3, N-[3-Dimethylamino-1-(4-methylphenyl)propyl]-2-(4-methoxyphenyl)acetamide HCl], the Emax came to 62 ± 5% and the EC50 was 5.89 µM.
For `Cc1ccc(C(CCN(C)C)NC(=O)CCc2ccccc2)cc1` (stereo not drawn) [B4, N-[3-Dimethylamino-1-(4-methylphenyl)propyl]-3-phenylpropionamide HCl], in that order: 73 ± 9% and 4.57 µM.
`Cc1ccc(C(CCN(C)C)NC(=O)CCc2ccc(C(F)(F)F)cc2)cc1` (stereo not drawn) [B5, N-[3-Dimethylamino-1-(4-methylphenyl)propyl]-3-(4-trifluoromethylphenyl) propionamide HCl] had an Emax of 60 ± 6% and an EC50 of 2.29 µM.
`COc1ccc(CCC(=O)NC(CCN(C)C)c2ccc(C)cc2)cc1` (stereo not drawn) [B6, N-[3-Dimethylamino-1-(4-methylphenyl)propyl]-3-(4-methoxyphenyl)propionamide HCl]: the Emax turned out to be 67 ± 14% and the EC50 is 5.37 µM.
